# Target: T1, human TrkA (Homo sapiens, UniProt P04629)
# T1 construct: purchased Lifetechnologies PV3144
# Assay: Test Example 2: Human TrkA Inhibition Assay
# Assay type: biochemical
# Conditions: Test Example 2; human TrkA 2.5 nmol/L, ATP 500 μmol/L, 90 min at room temperature; read-out: TrkA inhibitory activity IC50
# Description: After the incubation for 90 min at room temperature, ten μL of termination buffer (100 mmol/L HEPES, 40 mmol/L ethylenediaminetetraacetic acid (EDTA), 10 mmol/L magnesium chloride, 0.003 vol % Brij-35, 0.004 vol % Tween20, 1 mmol/L DTT and 0.16 vol % Coating Reagent 3) was added in each well to stop the enzyme reaction. Fluorescent intensities (FI) of phosphorylated and non-phosphorylated fluorescent substrates were measured by LabChip EZReader II (Caliper LifeSciences, Inc.) and conversion ratio (CR) was calculated by the following formula-1. The CR in the well applied with DMSO alone was used as a negative control and the CR in the well without applying TrkA was used as a positive control. The inhibitory effect of each compound on TrkA phosphorylation was calculated by the following formula-2. CR (%)=(FI of phosphorylated substrate/(FI of phosphorylated substrate+FI of non-phosphorylated substrate))×100 (Formula-1) Inhibitory effect on TrkA phosphorylation (%)=(1−(CR in compound treated well−CR in positive control)/(CR in negative control−CR in positive control))×100. (Formula-2)
# T1 sequence (P04629 33-796): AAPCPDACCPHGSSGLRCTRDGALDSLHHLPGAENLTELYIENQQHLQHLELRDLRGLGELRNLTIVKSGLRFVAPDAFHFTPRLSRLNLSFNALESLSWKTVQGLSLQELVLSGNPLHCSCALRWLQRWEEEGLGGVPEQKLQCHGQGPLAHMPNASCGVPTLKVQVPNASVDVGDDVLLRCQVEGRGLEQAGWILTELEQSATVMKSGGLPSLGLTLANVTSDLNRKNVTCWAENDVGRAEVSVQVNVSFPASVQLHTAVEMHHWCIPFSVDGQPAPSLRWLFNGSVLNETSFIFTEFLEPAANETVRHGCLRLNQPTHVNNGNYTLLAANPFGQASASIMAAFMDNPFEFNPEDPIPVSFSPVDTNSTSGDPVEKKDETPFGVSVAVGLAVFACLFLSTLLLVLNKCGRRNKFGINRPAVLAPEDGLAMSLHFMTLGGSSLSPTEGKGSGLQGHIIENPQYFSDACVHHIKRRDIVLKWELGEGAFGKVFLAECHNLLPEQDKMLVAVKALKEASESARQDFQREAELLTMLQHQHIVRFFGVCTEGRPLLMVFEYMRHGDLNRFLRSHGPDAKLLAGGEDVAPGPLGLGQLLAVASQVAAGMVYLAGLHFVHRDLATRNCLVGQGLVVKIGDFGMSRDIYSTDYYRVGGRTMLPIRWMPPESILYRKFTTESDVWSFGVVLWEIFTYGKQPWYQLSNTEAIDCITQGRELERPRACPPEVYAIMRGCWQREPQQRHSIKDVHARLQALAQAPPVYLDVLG
row,IC50 [nM],SMILES
1,3300,Cc1c(-c2cnn(C)c2)nn(-c2ccccc2)c1NC(=O)N[C@@H]1CC2(CC(=O)C2)C[C@H]1c1ccccc1 (racemic) [Compound I-157]
2,4200,Cc1c(-c2cnn(C)c2)nn(-c2ccccc2)c1NC(=O)N[C@@H]1CC(=O)C[C@H]1c1ccccc1 (racemic) [Compound I-161]

# Same assay, conditions: human TrkA inhibition, Test Example 2; class symbols A/B/C; read-out: IC50_nM
row,SMILES,IC50 [nM]
1,COCCN1C[C@@H](NC(=O)Nc2c(C)c(-c3cnn(C)c3)nn2-c2ccccc2)[C@H](c2cccc(C(=O)O)c2)C1 (racemic) [Compound I-82],> 1000
2,COCCN1C[C@@H](NC(=O)Nc2c(C)c(-c3cnn(C)c3)nn2-c2ccccc2)[C@H](c2ccc(C(=O)O)cc2)C1 (racemic) [Compound I-83],> 1000
3,COCCN1C[C@@H](NC(=O)Nc2c(C)c(-c3cnn(C)c3)nn2-c2ccccc2)[C@H](c2ccc3ccccc3c2)C1 (racemic) [Compound I-104],< 100
4,COCCN1C[C@@H](NC(=O)Nc2c(C)c(-c3cnn(C)c3)nn2-c2ccccc2)[C@H](c2cc3ccccc3o2)C1 (racemic) [Compound I-134],100 to 1000
5,COCCN1C[C@@H](NC(=O)Nc2c(C)c(-c3cnn(C)c3)nn2-c2ccccc2)[C@H](c2ccc3oc(=O)[nH]c3c2)C1 (racemic) [Compound I-149],> 1000
6,COCCN1C[C@@H](NC(=O)Nc2c(C)c(-c3cnn(C)c3)nn2-c2ccccc2)[C@H](c2ccc3cccnc3c2)C1 (racemic) [Compound I-150],> 1000
7,COCCN1C[C@@H](NC(=O)Nc2c(C)c(-c3cnn(C)c3)nn2-c2ccccc2)[C@H](c2nc3ccccc3s2)C1 (racemic) [Compound I-153],> 1000
8,COCCN1C[C@@H](NC(=O)Nc2c(C)c(-c3cnn(C)c3)nn2-c2ccccc2)[C@H](c2nc3ccccc3o2)C1 (racemic) [Compound I-156],> 1000
9,COCCN1C[C@@H](NC(=O)Nc2c(C)c(-c3cnn(C)c3)nn2-c2ccccc2)[C@H](c2ccc3nccn3c2)C1 (racemic) [Compound I-165],> 1000
10,COCCN1C[C@@H](NC(=O)Nc2c(C)c(-c3cnn(C)c3)nn2-c2ccccc2)[C@H](c2ccc3c(c2)N(C(=O)OC(C)(C)C)CCO3)C1 (racemic) [Compound I-167],> 1000
11,COC1CC2(C1)C[C@@H](NC(=O)Nc1c(C)c(-c3cnn(C)c3)nn1-c1ccccc1)[C@H](c1ccccc1)C2 (mixture of isomers) [Compound I-170],> 1000
12,COCCN1C[C@@H](NC(=O)Nc2c(C)c(-c3cnn(C)c3)nn2-c2ccccc2)[C@H](c2cccc(N(C)C)c2)C1 (racemic) [Compound I-171],> 1000
13,Cc1c(-c2cnn(C)c2)nn(-c2ccccc2)c1NC(=O)N[C@@H]1CC2(CC(O)C2)C[C@H]1c1ccccc1 (mixture of isomers) [Compound I-172],> 1000
14,COCCN1C[C@@H](NC(=O)Nc2c(C)c(-c3cnn(C)c3)nn2-c2ccccc2)[C@H](c2cccc(-c3cn[nH]c3)c2)C1 (racemic) [Compound I-175],> 1000
15,COCOC1C[C@@H](NC(=O)Nc2c(C)c(-c3cnn(C)c3)nn2-c2ccccc2)[C@H](c2ccccc2)C1 (relative stereo) [Compound I-121],100 to 1000
16,Cc1c(-c2cnn(C)c2)nn(-c2ccccc2)c1NC(=O)NC1CCCCC1Cc1ccc(Cl)cc1 (stereo not drawn) [Compound I-14],> 1000
17,COCCN1C[C@@H](NC(=O)N(C)c2c(C)c(-c3cnn(C)c3)nn2-c2ccccc2)[C@H](c2ccc(F)c(F)c2)C1 [Compound I-32],> 1000
18,Cc1c(-c2cnn(C)c2)nn(-c2ccccc2)c1NC(=O)N[C@@H]1CC(C)C[C@H]1c1ccccc1 (stereo partly drawn) [Compound I-36],< 100

# Second part, the compound after the results:
row,IC50 [nM],SMILES
1,> 1000,Cc1c(-c2cnn(C)c2)nn(-c2ccccc2)c1NC(=O)N[C@@H]1C[C@@H](C)N[C@H]1c1ccc(F)c(F)c1 (racemic) [Compound I-77]
2,100 to 1000,COCCN1C[C@@H](NC(=O)Nc2c(C)c(-c3cnn(C)c3)nn2-c2ccccc2)[C@H](c2ccc3c(c2)OCCO3)C1 (racemic) [Compound I-128]
3,100 to 1000,C=C1C[C@@H](NC(=O)Nc2c(C)c(-c3cnn(C)c3)nn2-c2ccccc2)[C@H](c2ccc(F)c(F)c2)C1 (racemic) [Compound I-135]
4,> 1000,COCCN1C[C@@H](NC(=O)Nc2c(C)c(-c3cnn(C)c3)nn2-c2ccccc2)[C@H](c2ccc3c(c2)NCCO3)C1 (racemic) [Compound I-162]
5,> 1000,Cc1c(-c2cnn(C)c2)nn(-c2ccccc2)c1NC(=O)N[C@@H]1C[C@@H](C)N(C)[C@H]1c1ccc(F)c(F)c1 (racemic) [I 78]
6,> 1000,Cc1c(-c2cnn(C)c2)nn(-c2ccccc2)c1NC(=O)NC1CNCCC1c1ccc(F)c(F)c1 (stereo not drawn) [Compound I-2]
7,> 1000,COCCN1CCC(c2ccc(F)c(F)c2)C(NC(=O)Nc2c(C)c(-c3cnn(C)c3)nn2-c2ccccc2)C1 (stereo not drawn) [Compound I-4]
8,100 to 1000,Cc1c(-c2cnn(C)c2)nn(-c2ccccc2)c1NC(=O)N[C@@H]1CN(CCOc2ccccc2)C[C@H]1c1ccc(F)c(F)c1 [Compound I-23]
9,100 to 1000,Cc1c(-c2cnn(C)c2)nn(-c2ccccc2)c1NC(=O)N[C@@H]1CN(CC2CCCO2)C[C@H]1c1ccc(F)c(F)c1 (stereo partly drawn) [Compound I-24]
10,> 1000,Cc1c(-c2cnn(C)c2)nn(-c2ccccc2)c1NC(=O)N[C@@H]1C[N+](C)(C)C[C@H]1c1ccc(F)c(F)c1 [Compound I-25]
11,> 1000,COCC(=O)N1C[C@@H](NC(=O)Nc2c(C)c(-c3cnn(C)c3)nn2-c2ccccc2)[C@H](c2ccc(F)c(F)c2)C1 [Compound I-26]
12,> 1000,COCCC(=O)N1C[C@@H](NC(=O)Nc2c(C)c(-c3cnn(C)c3)nn2-c2ccccc2)[C@H](c2ccc(F)c(F)c2)C1 [Compound I-27]
13,> 1000,CC(=O)N1C[C@@H](NC(=O)Nc2c(C)c(-c3cnn(C)c3)nn2-c2ccccc2)[C@H](c2ccc(F)c(F)c2)C1 [Compound I-28]
14,> 1000,Cc1c(-c2cnn(C)c2)nn(-c2ccccc2)c1NC(=O)N[C@@H]1CN(CCNC(=O)OC(C)(C)C)C[C@H]1c1ccc(F)c(F)c1 [Compound I-31]
15,> 1000,Cc1c(-c2cnn(C)c2)nn(-c2ccccc2)c1NC(=O)N[C@@H]1CN(C=O)C[C@H]1c1ccc(F)c(F)c1 [Compound I-35]
16,100 to 1000,Cc1c(-c2cnn(C)c2)nn(-c2ccccc2)c1NC(=O)N[C@@H]1CN(C2COC2)C[C@H]1c1ccc(F)c(F)c1 [Compound I-37]
17,> 1000,Cc1c(-c2cnn(C)c2)nn(-c2ccccc2)c1NC(=O)N[C@@H]1CN(C2CC(F)(F)C2)C[C@H]1c1ccc(F)c(F)c1 [Compound I-38]
18,> 1000,Cc1c(-c2cnn(C)c2)nn(-c2ccccc2)c1NC(=O)N[C@@H]1CN(C2CCOC2)C[C@H]1c1ccc(F)c(F)c1 (stereo partly drawn) [Compound I-39]
19,> 1000,CC(=O)NCCN1C[C@@H](NC(=O)Nc2c(C)c(-c3cnn(C)c3)nn2-c2ccccc2)[C@H](c2ccc(F)c(F)c2)C1 [Compound I-40]
20,> 1000,COC(=O)NCCN1C[C@@H](NC(=O)Nc2c(C)c(-c3cnn(C)c3)nn2-c2ccccc2)[C@H](c2ccc(F)c(F)c2)C1 [Compound I-41]
21,100 to 1000,Cc1c(-c2cnn(C)c2)nn(-c2ccccc2)c1NC(=O)N[C@@H]1CN(CCNS(C)(=O)=O)C[C@H]1c1ccc(F)c(F)c1 [Compound I-42]
22,> 1000,Cc1c(-c2cnn(C)c2)nn(-c2ccccc2)c1NC(=O)N[C@@H]1CN(CC2CCCCO2)C[C@H]1c1ccc(F)c(F)c1 (stereo partly drawn) [Compound I-43]

# Reference: US10532985B2, “Heterocycle and carbocycle derivatives having TRKA inhibitory activity” (Shionogi & Co., Ltd., priority 2014, dated 2020)
